Measured values from patent publication EP4810052A2, “HCRHR2 SELECTIVE POLYPEPTIDES” (Gubra A/S, priority 2023, dated 2026).
Like-named read-outs stand apart in the source and are kept apart here. Starred links: 1 amine or outer side, 2 acyl side, 3 side chain; linkers in the order of their positions; H or OH if unused. Non-standard residues stand in square brackets, D forms with d. Residues, ends and D or L forms follow the SMILES beside them. Groups on a side chain read outwards from the residue. *: point of attachment. C20 diacid = O=C(O)CCCCCCCCCCCCCCCCCCC(=O)*; γGlu = O=C(O)[C@H](CCC(=O)[*:2])N[*:1]; NMeI = CC[C@H](C)[C@H](NC)C(=O)O; Nle = CCCC[C@H](N)C(=O)O; AEEA = NCCOCCOCC(=O)O; Aib = CC(C)(N)C(=O)O

Tests used:
hCRHR1 = biological target: T1, hCRHR1 (Homo sapiens, UniProt P34998); assay: HTRF cAMP assay, determination of hCRHR1 potency (peptide libraries 5 conc., purified peptides 11 conc.); format: cell-based
T1 sequence (P34998 24-415): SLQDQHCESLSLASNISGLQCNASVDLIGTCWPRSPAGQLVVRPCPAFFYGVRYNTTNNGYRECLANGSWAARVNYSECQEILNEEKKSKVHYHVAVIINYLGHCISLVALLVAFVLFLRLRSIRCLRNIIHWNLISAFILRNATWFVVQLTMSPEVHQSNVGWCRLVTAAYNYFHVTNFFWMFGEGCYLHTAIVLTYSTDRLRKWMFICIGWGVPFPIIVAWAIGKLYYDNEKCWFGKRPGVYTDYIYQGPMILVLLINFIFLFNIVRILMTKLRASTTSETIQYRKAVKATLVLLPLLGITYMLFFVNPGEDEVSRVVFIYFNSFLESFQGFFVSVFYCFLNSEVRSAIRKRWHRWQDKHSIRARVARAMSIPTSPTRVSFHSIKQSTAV
Outline: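 CHO-K1 cells stably expressing human CRHR1, thawed from frozen stocks just before use, were stimulated in suspension with agonist peptides. cAMP was measured by HTRF competitive immunoassay (cryptate anti-cAMP antibody vs d2-cAMP).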

hCRHR2 = biological target: T2, hCRHR2 (Homo sapiens, UniProt Q13324); assay: HTRF cAMP assay, determination of hCRHR2 potency (peptide libraries 5 conc., purified peptides 11 conc.); format: cell-based
T2 sequence (Q13324 1-411): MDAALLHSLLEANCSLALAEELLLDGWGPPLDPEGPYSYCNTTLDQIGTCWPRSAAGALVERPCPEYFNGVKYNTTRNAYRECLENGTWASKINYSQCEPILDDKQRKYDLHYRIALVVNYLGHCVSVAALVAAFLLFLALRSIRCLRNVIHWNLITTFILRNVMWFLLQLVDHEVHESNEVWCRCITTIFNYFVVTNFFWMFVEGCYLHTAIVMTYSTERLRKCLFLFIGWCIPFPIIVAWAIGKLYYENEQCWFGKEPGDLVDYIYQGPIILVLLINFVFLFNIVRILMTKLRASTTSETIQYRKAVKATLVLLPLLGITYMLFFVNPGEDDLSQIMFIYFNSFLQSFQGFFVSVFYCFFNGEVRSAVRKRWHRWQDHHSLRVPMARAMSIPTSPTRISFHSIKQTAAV
Outline: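 CHO-K1 cells stably expressing human CRHR2 were thawed from frozen stocks immediately before use and assayed in suspension with agonist peptides. cAMP was measured by time-resolved FRET in a competitive immunoassay between cryptate-labelled anti-cAMP antibody and d2-labelled cAMP. EC50 values came from nonlinear regression, sigmoid variable-slope fit.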

[1] = Table 4, library peptides having X^38 = Nle, read-out: hCRHR1 pEC50 (converted)
[2] = Table 4, library peptides having X^38 = Nle, read-out: hCRHR2 pEC50 (converted)

Structure (SMILES) | EC50 (hCRHR1; [1]) | EC50 (hCRHR2; [2]) | EC50 (hCRHR1; library peptides, matched molecular pairs L vs Nle in position X^38, read-out: Potency hCRHR1 pEC50 (converted)) | EC50 (hCRHR2; library peptides, matched molecular pairs L vs Nle in position X^38, read-out: Potency hCRHR2 pEC50 (converted))
CCCC[C@H](NC(=O)[C@@H](NC(=O)[C@H](CCC(=O)O)NC(=O)[C@H](C)NC(=O)[C@H](CC(N)=O)NC(=O)C(C)(C)NC(=O)[C@H](CCCCNC(=O)COCCOCCNC(=O)COCCOCCNC(=O)CC[C@H](NC(=O)CC[C@H](NC(=O)CCCCCCCCCCCCCCCCCCC(=O)O)C(=O)O)C(=O)O)NC(=O)[C@H](C)NC(=O)[C@H](CCC(N)=O)NC(=O)[C@H](CCC(=O)O)NC(=O)[C@H](CCCNC(=N)N)NC(=O)[C@H](C)NC(=O)[C@H](C)NC(=O)[C@H](CCCNC(=N)N)NC(=O)[C@H](C)NC(=O)[C@H](CCCNC(=N)N)NC(=O)[C@H](C)NC(=O)[C@H](CCC(N)=O)NC(=O)[C@H](CC(C)C)NC(=O)[C@H](CC(C)C)NC(=O)[C@H](CC(C)C)NC(=O)[C@@H](NC(=O)[C@H](CCC(N)=O)NC(=O)[C@H](CC(C)C)NC(=O)[C@H](CC(C)C)NC(=O)CNC(=O)[C@@H](NC(=O)[C@@H]1CCCN1C(=O)[C@@H](NC(=O)[C@H](CC(=O)O)NC(=O)[C@H](CC(C)C)NC(=O)[C@H](CO)NC(=O)[C@H](CC(C)C)NC(=O)[C@@H](NC(=O)[C@@H](NC)[C@@H](C)CC)C(C)C)C(C)C)[C@@H](C)CC)[C@@H](C)CC)[C@@H](C)CC)C(=O)N[C@@H](C)C(=O)N[C@@H](CCC(=O)O)C(=O)N[C@H](C(N)=O)C(C)C [compound 235] (H-[NMeI]VLSLDVPIGLLQILLLQARARAAREQAK([AEEA-AEEA-γGlu-γGlu-C20 diacid])[Aib]NAEI[Nle]AEV-NH2) | 158000 nM | 0.126 nM | – | –
CCCC[C@H](NC(=O)[C@@H](NC(=O)[C@H](CCC(=O)O)NC(=O)[C@H](C)NC(=O)[C@H](CC(N)=O)NC(=O)[C@@H](NC(=O)[C@H](CCCCNC(=O)COCCOCCNC(=O)COCCOCCNC(=O)CC[C@H](NC(=O)CC[C@H](NC(=O)CCCCCCCCCCCCCCCCCCC(=O)O)C(=O)O)C(=O)O)NC(=O)[C@H](C)NC(=O)[C@H](CCC(N)=O)NC(=O)[C@H](CCC(N)=O)NC(=O)[C@H](CCCNC(=N)N)NC(=O)[C@H](C)NC(=O)[C@H](C)NC(=O)[C@H](CCC(N)=O)NC(=O)[C@H](C)NC(=O)[C@H](CCCNC(=N)N)NC(=O)[C@H](C)NC(=O)[C@H](CCC(N)=O)NC(=O)[C@H](CCC(=O)O)NC(=O)[C@H](CC(C)C)NC(=O)[C@H](CC(C)C)NC(=O)[C@@H](NC(=O)[C@H](CCC(N)=O)NC(=O)[C@H](CC(C)C)NC(=O)[C@H](CC(C)C)NC(=O)CNC(=O)[C@@H](NC(=O)[C@@H]1CCCN1C(=O)[C@@H](NC(=O)[C@H](CC(=O)O)NC(=O)[C@H](CC(C)C)NC(=O)[C@H](CO)NC(=O)[C@H](CC(C)C)NC(=O)[C@@H](NC(=O)[C@@H](N)[C@@H](C)CC)C(C)C)C(C)C)[C@@H](C)CC)[C@@H](C)CC)[C@@H](C)O)[C@@H](C)CC)C(=O)N[C@@H](C)C(=O)N[C@@H](CCC(=O)O)C(=O)N[C@H](C(N)=O)C(C)C [compound 55] (H-IVLSLDVPIGLLQILLEQARAQAARQQAK([AEEA-AEEA-γGlu-γGlu-C20 diacid])TNAEI[Nle]AEV-NH2) | – | – | 251 nM | 0.126 nM
CCCC[C@H](NC(=O)[C@@H](NC(=O)[C@H](CCC(=O)O)NC(=O)[C@H](C)NC(=O)[C@H](CC(N)=O)NC(=O)C(C)(C)NC(=O)[C@H](CCCCNC(=O)COCCOCCNC(=O)COCCOCCNC(=O)CC[C@H](NC(=O)CC[C@H](NC(=O)CCCCCCCCCCCCCCCCCCC(=O)O)C(=O)O)C(=O)O)NC(=O)[C@H](C)NC(=O)[C@H](CCC(N)=O)NC(=O)[C@H](CCC(=O)O)NC(=O)[C@H](CCCNC(=N)N)NC(=O)[C@H](C)NC(=O)[C@H](C)NC(=O)[C@H](CCCNC(=N)N)NC(=O)[C@H](C)NC(=O)[C@H](CCCNC(=N)N)NC(=O)[C@H](C)NC(=O)[C@H](CCC(N)=O)NC(=O)[C@H](Cc1ccccc1)NC(=O)[C@H](CC(C)C)NC(=O)[C@H](CC(C)C)NC(=O)[C@@H](NC(=O)[C@H](CCC(N)=O)NC(=O)[C@H](CC(C)C)NC(=O)[C@H](CC(C)C)NC(=O)CNC(=O)[C@@H](NC(=O)[C@@H]1CCCN1C(=O)[C@@H](NC(=O)[C@H](CC(=O)O)NC(=O)[C@H](CC(C)C)NC(=O)[C@H](CO)NC(=O)[C@H](CC(C)C)NC(=O)[C@@H](NC(=O)[C@@H](NC)[C@@H](C)CC)C(C)C)C(C)C)[C@@H](C)CC)[C@@H](C)CC)[C@@H](C)CC)C(=O)N[C@@H](C)C(=O)N[C@@H](CCC(=O)O)C(=O)N[C@H](C(N)=O)C(C)C [compound 128] (H-[NMeI]VLSLDVPIGLLQILLFQARARAAREQAK([AEEA-AEEA-γGlu-γGlu-C20 diacid])[Aib]NAEI[Nle]AEV-NH2) | 100000 nM | 0.00501 nM | – | –
CCCC[C@H](NC(=O)[C@@H](NC(=O)[C@H](CCC(=O)O)NC(=O)C(C)(C)NC(=O)[C@H](CC(N)=O)NC(=O)[C@@H](NC(=O)[C@H](CCCCNC(=O)COCCOCCNC(=O)COCCOCCNC(=O)CC[C@H](NC(=O)CC[C@H](NC(=O)CCCCCCCCCCCCCCCCCCC(=O)O)C(=O)O)C(=O)O)NC(=O)[C@H](C)NC(=O)[C@H](CCC(N)=O)NC(=O)[C@H](CCC(=O)O)NC(=O)[C@H](CCCNC(=N)N)NC(=O)[C@H](C)NC(=O)[C@H](C)NC(=O)[C@H](CCCNC(=N)N)NC(=O)[C@H](C)NC(=O)[C@H](CCCNC(=N)N)NC(=O)[C@H](C)NC(=O)[C@H](CCC(N)=O)NC(=O)[C@@H](NC(=O)[C@H](CC(C)C)NC(=O)[C@H](CC(C)C)NC(=O)[C@@H](NC(=O)[C@H](CCC(N)=O)NC(=O)[C@H](CC(C)C)NC(=O)[C@H](CC(C)C)NC(=O)CNC(=O)[C@@H](NC(=O)[C@@H]1CCCN1C(=O)[C@@H](NC(=O)[C@H](CC(=O)O)NC(=O)[C@H](CC(C)C)NC(=O)[C@H](CO)NC(=O)[C@H](CC(C)C)NC(=O)[C@@H](NC(=O)[C@@H](NC)[C@@H](C)CC)C(C)C)C(C)C)[C@@H](C)CC)[C@@H](C)CC)[C@@H](C)CC)[C@@H](C)O)[C@@H](C)CC)C(=O)N[C@@H](C)C(=O)N[C@@H](CCC(=O)O)C(=O)N[C@H](C(N)=O)C(C)C [compound 209] (H-[NMeI]VLSLDVPIGLLQILLIQARARAAREQAK([AEEA-AEEA-γGlu-γGlu-C20 diacid])TN[Aib]EI[Nle]AEV-NH2) | 3160 nM | 0.02 nM | – | –
CCCC[C@H](NC(=O)[C@@H](NC(=O)[C@H](CCC(=O)O)NC(=O)[C@H](C)NC(=O)[C@H](CC(N)=O)NC(=O)C(C)(C)NC(=O)[C@H](CCCCNC(=O)COCCOCCNC(=O)COCCOCCNC(=O)CC[C@H](NC(=O)CC[C@H](NC(=O)CCCCCCCCCCCCCCCCCCC(=O)O)C(=O)O)C(=O)O)NC(=O)[C@H](C)NC(=O)[C@H](CCC(N)=O)NC(=O)[C@H](CCC(=O)O)NC(=O)[C@H](CCCNC(=N)N)NC(=O)[C@H](C)NC(=O)[C@H](C)NC(=O)[C@H](CCCNC(=N)N)NC(=O)[C@H](C)NC(=O)[C@H](CCCNC(=N)N)NC(=O)[C@H](C)NC(=O)[C@H](CCC(N)=O)NC(=O)[C@H](CCCNC(=N)N)NC(=O)[C@H](CC(C)C)NC(=O)[C@H](CC(C)C)NC(=O)[C@@H](NC(=O)[C@H](CCC(N)=O)NC(=O)[C@H](CC(C)C)NC(=O)[C@H](CC(C)C)NC(=O)CNC(=O)[C@@H](NC(=O)[C@@H]1CCCN1C(=O)[C@@H](NC(=O)[C@H](CC(=O)O)NC(=O)[C@H](CC(C)C)NC(=O)[C@H](CO)NC(=O)[C@H](CC(C)C)NC(=O)[C@@H](NC(=O)[C@@H](NC)[C@@H](C)CC)C(C)C)C(C)C)[C@@H](C)CC)[C@@H](C)CC)[C@@H](C)CC)C(=O)N[C@@H](C)C(=O)N[C@@H](CCC(=O)O)C(=O)N[C@H](C(N)=O)C(C)C [compound 232] (H-[NMeI]VLSLDVPIGLLQILLRQARARAAREQAK([AEEA-AEEA-γGlu-γGlu-C20 diacid])[Aib]NAEI[Nle]AEV-NH2) | 50100 nM | 0.158 nM | – | –
